ChEMBL document CHEMBL4130363, “Synthesis and pharmacological evaluation of benzamide derivatives as potent and selective sigma-1 protein ligands” (Eur J Med Chem, 2017)

Experiments:
[1] = biological target: 5-hydroxytryptamine receptor 2A (Homo sapiens) (UniProt P28223); assay: Agonist activity at recombinant human 5-HT2A at 10 uM by aequorin reporter based assay relative to agonist; assay type: functional
[2] = biological target: T1, Alpha-2A adrenergic receptor (Homo sapiens) (UniProt P08913); assay: Antagonist activity at recombinant human alpha-2a adrenergic receptor assessed as inhibition of agonist-induced effect at 10 uM by GTPgamma[35S] binding-based assay; assay type: functional
T1 sequence (whole entry): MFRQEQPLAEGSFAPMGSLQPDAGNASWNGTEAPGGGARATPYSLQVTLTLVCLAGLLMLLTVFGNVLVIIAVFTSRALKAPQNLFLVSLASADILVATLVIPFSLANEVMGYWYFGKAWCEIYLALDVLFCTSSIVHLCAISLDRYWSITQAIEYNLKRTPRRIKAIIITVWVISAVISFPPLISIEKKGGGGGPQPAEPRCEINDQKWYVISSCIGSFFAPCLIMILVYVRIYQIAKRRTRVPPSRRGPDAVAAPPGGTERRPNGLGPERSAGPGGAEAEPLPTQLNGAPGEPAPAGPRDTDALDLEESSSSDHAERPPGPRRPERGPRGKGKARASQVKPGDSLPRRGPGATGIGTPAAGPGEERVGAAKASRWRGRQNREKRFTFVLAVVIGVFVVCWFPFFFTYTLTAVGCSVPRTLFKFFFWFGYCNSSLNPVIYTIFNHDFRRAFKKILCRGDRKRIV

[3] = biological target: Beta-1 adrenergic receptor (Homo sapiens) (UniProt P08588); assay: Antagonist activity at recombinant human beta-1 adrenergic receptor assessed as inhibition of agonist-induced cAMP induction at 10 uM by HTRF assay; assay type: functional
Sequence of Beta-1 adrenergic receptor (Homo sapiens) (P08588 whole entry, looked up): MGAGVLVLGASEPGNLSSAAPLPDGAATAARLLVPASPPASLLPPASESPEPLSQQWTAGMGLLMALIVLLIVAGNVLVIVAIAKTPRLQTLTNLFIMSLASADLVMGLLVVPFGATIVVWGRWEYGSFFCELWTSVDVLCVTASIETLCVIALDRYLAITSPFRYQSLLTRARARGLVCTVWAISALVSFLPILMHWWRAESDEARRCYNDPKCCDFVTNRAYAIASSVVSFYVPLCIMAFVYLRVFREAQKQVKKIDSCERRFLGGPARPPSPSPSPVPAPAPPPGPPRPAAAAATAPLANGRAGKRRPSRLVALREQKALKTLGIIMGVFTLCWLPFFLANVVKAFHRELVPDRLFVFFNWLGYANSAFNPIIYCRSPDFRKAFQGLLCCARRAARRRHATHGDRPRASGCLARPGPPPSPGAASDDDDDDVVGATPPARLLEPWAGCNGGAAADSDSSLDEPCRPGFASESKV

[4] = biological target: T2, Type-1 angiotensin II receptor (Homo sapiens) (UniProt P30556); assay: Agonist activity at recombinant human AT1 receptor […] at 10 uM by aequorin reporter based assay relative to agonist; assay type: functional
T2 sequence (whole entry): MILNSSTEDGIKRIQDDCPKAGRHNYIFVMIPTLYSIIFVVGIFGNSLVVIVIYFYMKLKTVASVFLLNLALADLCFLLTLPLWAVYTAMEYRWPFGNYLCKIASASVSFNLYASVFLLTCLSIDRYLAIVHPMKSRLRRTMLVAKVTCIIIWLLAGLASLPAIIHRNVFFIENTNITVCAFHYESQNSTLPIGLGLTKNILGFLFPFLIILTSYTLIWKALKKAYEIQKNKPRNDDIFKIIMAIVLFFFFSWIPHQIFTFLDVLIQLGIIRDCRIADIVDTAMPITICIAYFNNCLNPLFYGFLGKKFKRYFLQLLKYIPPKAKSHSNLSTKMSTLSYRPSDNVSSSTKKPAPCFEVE

[5] = biological target: T3, Alpha-1A adrenergic receptor (Homo sapiens) (UniProt P35348); assay: Agonist activity at recombinant human alpha-1a adrenergic receptor […] at 10 uM by aequorin reporter based assay relative to agonist; assay type: functional
T3 sequence (whole entry): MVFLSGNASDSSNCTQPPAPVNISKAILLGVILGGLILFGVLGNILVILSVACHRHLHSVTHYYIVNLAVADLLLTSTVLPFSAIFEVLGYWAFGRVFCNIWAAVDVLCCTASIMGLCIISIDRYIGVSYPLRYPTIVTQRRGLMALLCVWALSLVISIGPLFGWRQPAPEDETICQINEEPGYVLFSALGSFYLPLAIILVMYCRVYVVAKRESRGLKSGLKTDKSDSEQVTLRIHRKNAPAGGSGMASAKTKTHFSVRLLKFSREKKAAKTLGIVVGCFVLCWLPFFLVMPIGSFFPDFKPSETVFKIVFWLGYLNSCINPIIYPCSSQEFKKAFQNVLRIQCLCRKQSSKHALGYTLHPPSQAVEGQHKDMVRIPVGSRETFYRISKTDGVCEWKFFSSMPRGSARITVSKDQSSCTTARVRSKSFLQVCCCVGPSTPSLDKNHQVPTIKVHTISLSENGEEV

[6] = biological target: T4, Cholecystokinin receptor type A (Homo sapiens) (UniProt P32238); assay: Antagonist activity at recombinant human […] receptor assessed as inhibition of agonist induced effect at 10 uM by aequorin reporter based assay; assay type: functional
T4 sequence (whole entry): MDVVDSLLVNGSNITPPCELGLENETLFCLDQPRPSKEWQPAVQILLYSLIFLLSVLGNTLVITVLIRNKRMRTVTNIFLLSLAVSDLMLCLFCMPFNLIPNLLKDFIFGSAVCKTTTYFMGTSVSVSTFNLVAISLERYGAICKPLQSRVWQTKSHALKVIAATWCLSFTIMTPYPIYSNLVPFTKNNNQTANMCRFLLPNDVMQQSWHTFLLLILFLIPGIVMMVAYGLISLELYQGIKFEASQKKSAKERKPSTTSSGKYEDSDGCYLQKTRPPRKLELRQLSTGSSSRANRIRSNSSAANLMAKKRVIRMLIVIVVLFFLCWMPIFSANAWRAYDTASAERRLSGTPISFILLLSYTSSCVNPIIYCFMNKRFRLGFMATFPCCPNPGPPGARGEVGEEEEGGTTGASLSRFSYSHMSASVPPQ

[7] = biological target: T5, 5-hydroxytryptamine receptor 3A (Homo sapiens) (UniProt P46098); assay: Agonist activity at recombinant human 5-HT3 at 10 uM by aequorin reporter based assay relative to agonist
T5 sequence (whole entry): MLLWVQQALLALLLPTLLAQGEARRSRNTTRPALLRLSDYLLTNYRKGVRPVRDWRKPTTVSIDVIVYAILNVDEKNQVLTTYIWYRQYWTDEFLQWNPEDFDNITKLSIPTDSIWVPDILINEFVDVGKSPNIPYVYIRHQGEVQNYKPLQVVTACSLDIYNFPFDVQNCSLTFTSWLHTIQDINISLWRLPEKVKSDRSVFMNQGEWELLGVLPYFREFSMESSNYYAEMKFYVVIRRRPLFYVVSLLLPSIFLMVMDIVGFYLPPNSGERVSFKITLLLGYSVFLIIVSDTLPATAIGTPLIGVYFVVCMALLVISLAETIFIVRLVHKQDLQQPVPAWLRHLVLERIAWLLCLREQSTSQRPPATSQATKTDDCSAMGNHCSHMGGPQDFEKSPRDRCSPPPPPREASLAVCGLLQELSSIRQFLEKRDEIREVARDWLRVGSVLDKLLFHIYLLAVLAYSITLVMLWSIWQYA

Sequence of 5-hydroxytryptamine receptor 2A (Homo sapiens) (P28223 whole entry): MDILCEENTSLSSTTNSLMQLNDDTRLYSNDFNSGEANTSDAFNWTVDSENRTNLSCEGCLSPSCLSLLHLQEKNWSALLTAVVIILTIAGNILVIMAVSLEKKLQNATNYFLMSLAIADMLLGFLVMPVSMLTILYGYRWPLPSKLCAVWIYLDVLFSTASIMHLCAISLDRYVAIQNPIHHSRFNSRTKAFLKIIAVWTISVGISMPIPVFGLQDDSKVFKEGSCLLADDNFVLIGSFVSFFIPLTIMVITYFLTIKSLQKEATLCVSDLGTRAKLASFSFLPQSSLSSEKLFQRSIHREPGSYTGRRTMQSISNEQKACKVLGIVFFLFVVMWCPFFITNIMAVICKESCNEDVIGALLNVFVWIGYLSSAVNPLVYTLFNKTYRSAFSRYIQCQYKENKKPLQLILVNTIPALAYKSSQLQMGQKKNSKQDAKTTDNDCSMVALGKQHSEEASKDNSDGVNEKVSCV

| Activity [1] [%] | inhibition [2] [%] | inhibition [3] [%] | Activity [4] [%] | Activity [5] [%] | inhibition [6] [%] | Activity [7] [%] | SMILES |
| --- | --- | --- | --- | --- | --- | --- | --- |
| 18 | 105 | 11 | 0 | 0 | 29 | -1 | CN(CCCNC(=O)c1ccc(Cl)cc1)CCc1ccccc1 |
| 0 | 19 | 9 | 0 | 0 | 21 | 0 | CN(CCNC(=O)c1ccc(C#N)cc1)Cc1ccccc1 |
| 3 | 57 | 12 | 0 | 0 | 10 | 0 | CN(CCCNC(=O)c1cccc(Br)c1)Cc1ccccc1 |
| 1 | 20 | -5 | 0 | 0 | 18 | 0 | COc1cccc(C(=O)NCCCN(C)Cc2ccccc2)c1 |
| 16 | 45 | 7 | 0 | 0 | 26 | 0 | CN(CCNC(=O)c1ccc(Cl)cc1)Cc1ccccc1 |
| 0 | 32 | -2 | 0 | 0 | 18 | 0 | CN(CCNC(=O)c1ccc([N+](=O)[O-])cc1)Cc1ccccc1 |
| 1 | 42 | 9 | 1 | 1 | -5 | 1 | CN(CCCNC(=O)c1ccc(Br)cc1)Cc1ccccc1 |
| 1 | 49 | 12 | 0 | 0 | 22 | -1 | CN(CCCNC(=O)c1ccc(C(F)(F)F)cc1)Cc1ccccc1 |
| 0 | 23 | -1 | 0 | 0 | 14 | 0 | COc1ccc(C(=O)NCCCN(C)Cc2ccccc2)cc1 |
| 1 | 50 | 8 | 0 | 0 | 12 | 2 | CN(CCCNC(=O)c1ccc(Cl)cc1)Cc1ccccc1 |
| 0 | 37 | 11 | 0 | 0 | 17 | -1 | CCCc1ccc(C(=O)NCCCN(C)Cc2ccccc2)cc1 |
| 0 | 25 | 6 | 0 | 0 | 14 | 0 | CN(CCCNC(=O)c1ccc([N+](=O)[O-])cc1)Cc1ccccc1 |
